We go through 24 compounds from patent publication US9284333B2, “Fused pyrroledicarboxamides and their use as pharmaceuticals” (SANOFI, priority 2012, dated 2016).

For the assay, the target named is Human TASK-1 channels (Homo sapiens (Human), UniProt O14649). As to the kind of experiment: Determination of the activity on the TASK-1 channel in Xenopus oocytes (two-microelectrode voltage clamp). The class given is cell-based. The conditions noted are these: for pIC50: human TASK-1 expressed in Xenopus oocytes, room temperature, read-out: IC50 value for TASK-1 inhibition; for inhibition at 5 µM: compound concentration 5 μM. As to the method:
Determination of the activity on the TASK-1 channel in Xenopus oocytes
Human TASK-1 channels were expressed in Xenopus oocytes. For this purpose, oocytes were isolated from Xenopus laevis and defoliculated. Subsequently, TASK-1-encoding RNA synthesized in vitro was injected into the oocytes. After two days of TASK-1 protein expression, TASK-1 currents were measured by two-microelectrode voltage clamp. Data were acquired and analyzed using a TEC-10cx amplifier (NPI Electronic, Tamm, Germany) connected to an ITC-16 interface (Instrutech Corp., Long Island, USA) and Pulse software (HEKA Elektronik, Lambrecht, Germany). Oocytes were clamped to −90 mV and TASK-1 mediated currents were measured during 500 ms voltage pulses to 40 mV. Oocytes were continuously superfused with ND96 buffer containing 96 mM sodium chloride, 2 mM potassium chloride, 1.8 mM calcium chloride, 1 mM magnesium chloride, 5 mM 4-(2-hydroxyethyl)-piperazine-1-ethanesulfonic acid (HEPES; pH adjusted to 7.4 with sodium hydroxide). All experiments were performed at room temperature. Test compounds were consecutively added to the bath solution at rising concentrations. Compound effects were calculated as the percentage inhibition of TASK-1 control current before compound addition. IC50 values were obtained by fitting the data to the general dose-response equation.

pIC50: −log10 of the molar value.

By pIC50 is commonly meant −log10 of the IC50, conventionally taken in molar units. Usually inhibition stands for the drop in the measured response relative to a control, in per cent. Higher therefore signals a response far below the control.

Chain of Human TASK-1 channels (O14649 whole entry): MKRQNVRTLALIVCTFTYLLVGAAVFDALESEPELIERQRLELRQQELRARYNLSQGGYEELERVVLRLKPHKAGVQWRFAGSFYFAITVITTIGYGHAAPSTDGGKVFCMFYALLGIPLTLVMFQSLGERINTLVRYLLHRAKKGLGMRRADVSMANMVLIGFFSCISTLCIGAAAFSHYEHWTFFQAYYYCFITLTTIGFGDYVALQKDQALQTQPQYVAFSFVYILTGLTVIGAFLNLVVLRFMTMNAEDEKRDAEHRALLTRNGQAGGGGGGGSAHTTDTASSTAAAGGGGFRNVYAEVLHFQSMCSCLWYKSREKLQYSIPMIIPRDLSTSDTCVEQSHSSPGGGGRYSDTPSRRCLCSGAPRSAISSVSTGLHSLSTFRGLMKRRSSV

`CCC[C@@H](NC(=O)c1cc(C(=O)N2CCC[C@@H]2C)n2c1COCC2)c1ccc(C(F)(F)F)nc1` [16bi, 6-((S)-2-Methyl-pyrrolidine-1-carbonyl)-3,4-dihydro-1H-pyrrolo[2,1-c][1,4]oxazine-8-carboxylic acid [(R)-1-(6-trifluoromethyl-pyridin-3-yl)-butyl]-amide]: the pIC50 was 6.82.

On to `CC[C@H](NC(=O)c1cc(C(=O)N2CCC[C@@H]2C)n2c1COCC2)c1ccc(C(F)(F)F)nc1` [16bj, 6-((S)-2-Methyl-pyrrolidine-1-carbonyl)-3,4-dihydro-1H-pyrrolo[2,1-c][1,4]oxazine-8-carboxylic acid [(S)-1-(6-trifluoromethyl-pyridin-3-yl)-propyl]-amide], for which the pIC50 was 5.39.

On to `CC[C@@H](NC(=O)c1cc(C(=O)N2CCC[C@@H]2C)n2c1COCC2)c1cncc(C(F)(F)F)c1` [16bk, 6-((S)-2-Methyl-pyrrolidine-1-carbonyl)-3,4-dihydro-1H-pyrrolo[2,1-c][1,4]oxazine-8-carboxylic acid [(R)-1-(5-trifluoromethyl-pyridin-3-yl)-propyl]-amide], for which testing at 5 µM gave an inhibition of 53%.

`CC[C@@H](NC(=O)c1cc(C(=O)N2CCC[C@@H]2C)n2c1COCC2)c1ccc(C(F)(F)F)cn1` [16bl, 6-((S)-2-Methyl-pyrrolidine-1-carbonyl)-3,4-dihydro-1H-pyrrolo[2,1-c][1,4]oxazine-8-carboxylic acid [(R)-1-(5-trifluoromethyl-pyridin-2-yl)-propyl]-amide]: the pIC50 was 6.09.

Regarding `CC[C@@H](NC(=O)c1cc(C(=O)N2CCC[C@@H]2C)n2c1COCC2)c1ccc(C(F)(F)F)c(F)c1` [16bm, 6-((S)-2-Methyl-pyrrolidine-1-carbonyl)-3,4-dihydro-1H-pyrrolo[2,1-c][1,4]oxazine-8-carboxylic acid [(R)-1-(3-fluoro-4-trifluoromethyl-phenyl)-propyl]-amide], the pIC50 was 7.03.

Turning to `CC[C@H](NC(=O)c1cc(C(=O)N2CCC[C@@H]2C)n2c1COCC2)c1ccc(C(F)(F)F)c(F)c1` [16bn, 6-((S)-2-Methyl-pyrrolidine-1-carbonyl)-3,4-dihydro-1H-pyrrolo[2,1-c][1,4]oxazine-8-carboxylic acid [(S)-1-(3-fluoro-4-trifluoromethyl-phenyl)-propyl]-amide], the inhibition at 5 µM amounted to 63%.

As to `CC[C@@H](NC(=O)c1cc(C(=O)N2CCC[C@@H]2C)n2c1COCC2)c1ccc(F)c(C(F)(F)F)c1` [16bo, 6-((S)-2-Methyl-pyrrolidine-1-carbonyl)-3,4-dihydro-1H-pyrrolo[2,1-c][1,4]oxazine-8-carboxylic acid [(R)-1-(4-fluoro-3-trifluoromethyl-phenyl)-propyl]-amide], the pIC50 is 6.80.

Regarding `CC[C@H](NC(=O)c1cc(C(=O)N2CCC[C@@H]2C)n2c1COCC2)c1ccc(F)c(C(F)(F)F)c1` [16bp], the inhibition at 5 µM was found to be 90%.

With `CC[C@@H](NC(=O)c1cc(C(=O)N2CCC[C@@H]2C)n2c1COCC2)c1cnc(C(F)(F)F)cc1Cl` [16br, 6-((S)-2-Methyl-pyrrolidine-1-carbonyl)-3,4-dihydro-1H-pyrrolo[2,1-c][1,4]oxazine-8-carboxylic acid [(R)-1-(4-chloro-6-trifluoromethyl-pyridin-3-yl)-propyl]-amide], the pIC50 is 6.06.

`CC[C@H](NC(=O)c1cc(C(=O)N2CCC[C@@H]2C)n2c1COCC2)c1cnc(C(F)(F)F)cc1Cl` [16bs, 6-((S)-2-Methyl-pyrrolidine-1-carbonyl)-3,4-dihydro-1H-pyrrolo[2,1-c][1,4]oxazine-8-carboxylic acid [(S)-1-(4-chloro-6-trifluoromethyl-pyridin-3-yl)-propyl]-amide] came in with an inhibition at 5 µM of 80%.

`CC[C@@H](NC(=O)c1cc(C(=O)N2CCC[C@@H]2C)n2c1COCC2)c1cnc(C(F)(F)F)nc1` [16bt, 6-((S)-2-Methyl-pyrrolidine-1-carbonyl)-3,4-dihydro-1H-pyrrolo[2,1-c][1,4]oxazine-8-carboxylic acid [(R)-1-(2-trifluoromethyl-pyrimidin-5-yl)-propyl]-amide] came in with an inhibition at 5 µM of 47%.

`CC[C@@H](NC(=O)c1cc(C(=O)N2CCC[C@@H]2C)n2c1COCC2)c1ccnc(C(F)(F)F)c1F` [16bu, 6-((S)-2-Methyl-pyrrolidine-1-carbonyl)-3,4-dihydro-1H-pyrrolo[2,1-c][1,4]oxazine-8-carboxylic acid [(R)-1-(3-fluoro-2-trifluoromethyl-pyridin-4-yl)-propyl]-amide]: the pIC50 was 6.68.

As to `CC[C@@H](NC(=O)c1cc(C(=O)N2CCC[C@@H]2C)n2c1COCC2)c1c(Cl)cncc1Cl` [16bv, 6-((S)-2-Methyl-pyrrolidine-1-carbonyl)-3,4-dihydro-1H-pyrrolo[2,1-c][1,4]oxazine-8-carboxylic acid [(R)-1-(3,5-dichloro-pyridin-4-yl)-propyl]-amide], the pIC50 is 6.85.

With `CC[C@@H](NC(=O)c1cc(C(=O)N2CCC[C@@H]2C)n2c1COCC2)c1ccncc1Cl` [16bw, 6-((S)-2-Methyl-pyrrolidine-1-carbonyl)-3,4-dihydro-1H-pyrrolo[2,1-c][1,4]oxazine-8-carboxylic acid [(R)-1-(3-chloro-pyridin-4-yl)-propyl]-amide], the pIC50 is 5.92.

With `CC[C@H](NC(=O)c1cc(C(=O)N2CCC[C@@H]2C)n2c1COCC2)c1cnc(C(F)(F)F)cc1C(F)(F)F` [16bx, 6-((S)-2-Methyl-pyrrolidine-1-carbonyl)-3,4-dihydro-1H-pyrrolo[2,1-c][1,4]oxazine-8-carboxylic acid [(S)-1-(4,6-bis-trifluoromethyl-pyridin-3-yl)-propyl]-amide], the pIC50 was 6.32.

Take `CC[C@@H](NC(=O)c1cc(C(=O)N2CCC[C@@H]2C)n2c1COCC2)c1cnc(C(F)(F)F)cc1C(F)(F)F` [16by, 6-((S)-2-Methyl-pyrrolidine-1-carbonyl)-3,4-dihydro-1H-pyrrolo[2,1-c][1,4]oxazine-8-carboxylic acid [(R)-1-(4,6-bis-trifluoromethyl-pyridin-3-yl)-propyl]-amide]: the pIC50 was 6.10.

For `CC[C@@H](NC(=O)c1cc(C(=O)N2CCC[C@@H]2C)n2c1COCC2)c1ccc(C(F)(F)F)c(Cl)c1` [16c, 6-((S)-2-Methyl-pyrrolidine-1-carbonyl)-3,4-dihydro-1H-pyrrolo[2,1-c][1,4]oxazine-8-carboxylic acid [(R)-1-(3-chloro-4-trifluoromethyl-phenyl)-propyl]-amide], the pIC50 is 7.89.

For `CC[C@@H](NC(=O)c1cc(C(=O)N2CCC[C@@H]2C)n2c1COCC2)c1cc(F)c(C#N)c(F)c1` [16ca, 6-((S)-2-Methyl-pyrrolidine-1-carbonyl)-3,4-dihydro-1H-pyrrolo[2,1-c][1,4]oxazine-8-carboxylic acid [(R)-1-(4-cyano-3,5-difluoro-phenyl)-propyl]-amide], the pIC50 was 6.47.

In the case of `CC[C@@H](NC(=O)c1cc(C(=O)N2CCC[C@@H]2C)n2c1COCC2)c1ccc(C(F)(F)F)nc1C` [16cb, 6-((S)-2-Methyl-pyrrolidine-1-carbonyl)-3,4-dihydro-1H-pyrrolo[2,1-c][1,4]oxazine-8-carboxylic acid [(R)-1-(2-methyl-6-trifluoromethyl-pyridin-3-yl)-propyl]-amide], the pIC50 is 6.85.

Regarding `CC[C@@H](NC(=O)c1cc(C(=O)N2CCC[C@@H]2C)n2c1COCC2)c1ccc(C(F)(F)F)nc1Cl` [16cc, 6-((S)-2-Methyl-pyrrolidine-1-carbonyl)-3,4-dihydro-1H-pyrrolo[2,1-c][1,4]oxazine-8-carboxylic acid [(R)-1-(2-chloro-6-trifluoromethyl-pyridin-3-yl)-propyl]-amide], the pIC50 is 7.19.

For `CC[C@@H](NC(=O)c1cc(C(=O)N2CCC[C@@H]2C)n2c1COCC2)c1ccc(C(F)(F)F)s1` [16cf, 6-((S)-2-Methyl-pyrrolidine-1-carbonyl)-3,4-dihydro-1H-pyrrolo[2,1-c][1,4]oxazine-8-carboxylic acid [(R)-1-(5-trifluoromethyl-thiophen-2-yl)-propyl]-amide], the pIC50 is 7.68.

With `CC[C@@H](NC(=O)c1cc(C(=O)N2CCC[C@@H]2C)n2c1COCC2)c1ccc(F)c(Cl)c1` [16cg, 6-((S)-2-Methyl-pyrrolidine-1-carbonyl)-3,4-dihydro-1H-pyrrolo[2,1-c][1,4]oxazine-8-carboxylic acid [(R)-1-(3-chloro-4-fluoro-phenyl)-propyl]-amide], the pIC50 was 7.82.

Take `CC[C@@H](NC(=O)c1cc(C(=O)N2CCC[C@@H]2C)n2c1COCC2)c1ccc(OC)c(Cl)c1` [16ch, 6-((S)-2-Methyl-pyrrolidine-1-carbonyl)-3,4-dihydro-1H-pyrrolo[2,1-c][1,4]oxazine-8-carboxylic acid [(R)-1-(3-chloro-4-methoxy-phenyl)-propyl]-amide]: the pIC50 was 7.14.

For the compound `CC[C@@H](NC(=O)c1cc(C(=O)N2CCC[C@@H]2C)n2c1COCC2)c1ccc(Cl)c(Cl)c1` [16ci, 6-((S)-Methyl-pyrrolidine-1-carbonyl)-3,4-dihydro-1H-pyrrolo[2,1-c][1,4]oxazine-8-carboxylic acid [(R)-1-(3,4-dichloro-phenyl)-propyl]-amide], the pIC50 is 7.52.
